In US6630501B1, “Phosphinic pseudo-peptides that may be used as matrix zinc metalloprotease inhibitors” (Commissariat a l'energie Atomique, priority 1999, dated 2003):

Experiments:
MMP-7 (Matrilysin) = target: T1, MMP-7 (Matrilysin) (Homo sapiens, UniProt P09237); experiment: Ki determination with fluorogenic synthetic substrates, recombinant MMP-7; type: biochemical; details: @ 20 mM inhibitor; listed as R I
T1 construct: made in house; host or cells: E. coli
T1 sequence (P09237 95-267): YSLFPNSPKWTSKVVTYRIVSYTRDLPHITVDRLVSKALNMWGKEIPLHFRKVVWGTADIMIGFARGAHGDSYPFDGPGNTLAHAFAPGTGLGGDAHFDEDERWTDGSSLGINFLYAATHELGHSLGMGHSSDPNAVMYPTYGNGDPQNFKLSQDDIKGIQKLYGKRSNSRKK
Procedure: (§1) The MMPs used were produced in recombinant form, in an E. coli expression system, and then purified using different types of chromatographies. Apart from stromelysin-3 (MMP-11), the MMPs produces correspond to human sequences. The Stromelysin-3 used in this study corresponds to the murine form.
(§2) The activity of each MMP was determined using two fluorogenic synthetic substrates. The cutoff of said substrates, which generates a fluorescent signal proportional to the quantity of split substrate, enables a precise determination of the kinetic parameters. The affinity constants Ki were calculated using the equation of Horowitz et al, Proc. Natl. Acad. Sci. USA, 1987, 84, p. 6654-6658 [14], accounting for the dependency of the percentage of inhibition measured experimentally according to the concentration of inhibitor, as a function of the enzyme and substrate concentration.
(§3) The experiments for conducted in a Tris/50 mM HCl buffer, pH 6.8, 10 mM CaCl2, 25° C.

[1] = target: T2, MMP-11 (stromelysin-3, mST3) (Mus musculus, UniProt Q02853); experiment: Ki determination with fluorogenic synthetic substrates, recombinant MMP-11; type: biochemical, murine; details: Tris/50 mM HCl buffer, pH 6.8, 10 mM CaCl2, 25° C.; read-out: affinity constant Ki, MMP-11 mST3
T2 construct: made in house; host or cells: E. coli
T2 sequence (Q02853 102-492): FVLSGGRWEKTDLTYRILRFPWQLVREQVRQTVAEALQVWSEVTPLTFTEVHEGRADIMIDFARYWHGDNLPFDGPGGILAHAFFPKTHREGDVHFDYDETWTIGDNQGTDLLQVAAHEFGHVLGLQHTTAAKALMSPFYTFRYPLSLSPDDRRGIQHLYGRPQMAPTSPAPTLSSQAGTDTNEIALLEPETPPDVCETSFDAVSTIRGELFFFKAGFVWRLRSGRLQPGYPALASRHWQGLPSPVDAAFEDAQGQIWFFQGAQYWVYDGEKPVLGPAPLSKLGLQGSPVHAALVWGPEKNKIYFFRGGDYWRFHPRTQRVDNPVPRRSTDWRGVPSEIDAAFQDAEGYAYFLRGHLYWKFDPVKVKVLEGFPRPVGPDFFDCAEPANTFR
Procedure: as §1, §2, §3

MMP-14 (MT1-MMP) = target: T3, MMP-14 (MT1-MMP) (Homo sapiens, UniProt P50281); experiment: Ki determination with fluorogenic synthetic substrates, recombinant MMP-14; type: biochemical; details: Tris/50 mM HCl buffer, pH 6.8, 10 mM CaCl2, 25° C.; read-out: affinity constant Ki, MMP-14 MT1-MMP
T3 construct: made in house; host or cells: E. coli
Procedure: as §1, §2, §3

[2] = test system: malignant murine C26 cells; experiment: Tumorigenesis model: subcutaneous graft of malignant murine C26 cells in syngenic mice; type: in vivo; details: 150 μg of inhibitor/mouse/day, intraperitoneal
Procedure: The tumorigenesis model used to test the effect of said RXPO3 inhibitor in vivo consists of a subcutaneous graft of malignant murine C26 cells in syngenic mice (with a genetic background similar to that of the injected cells).
The C26 cells established from Balb c mouse colic cancer (Corbett et al., 1975, Cancer Res, 35:2434-2439 [15] are cultured until subconfluence. After trypsinisation, the cells are centrifuged at 1000 g for 10 minutes. The sediment is washed and resuspended in 1×PBS. A […] volume, containing 5×10^4 C26 cells, is injected subcutaneously at 2 sites on the back of 8 to 9-week old mice. The inhibitor is solubilised in 1× PBS and […] of inhibitor in a […] volume is administered by the intraperitoneal route. The treatment starts on the day of the injection of the C26 cells and continues at a rate of one injection a day for 25 days. The tumoral volumes are measured every day.
Three identical and independent tumorigenesis experiments were conducted, according to the protocol given above. The results obtained were similar. One of them is reported below.
The experiment related to 12 animals, 6 receiving a treatment (150 μg of inhibitor/mouse/day) and 6 used as controlled animals (150 μl 1×PBS).

MMP-1 (HFC) = target: T4, MMP-1 (HFC) (Homo sapiens, UniProt P03956); experiment: Ki determination with fluorogenic synthetic substrates, recombinant MMP-1; type: biochemical; details: @ 2 mM inhibitor; listed as R I
T4 construct: made in house; host or cells: E. coli
T4 sequence (P03956 100-469): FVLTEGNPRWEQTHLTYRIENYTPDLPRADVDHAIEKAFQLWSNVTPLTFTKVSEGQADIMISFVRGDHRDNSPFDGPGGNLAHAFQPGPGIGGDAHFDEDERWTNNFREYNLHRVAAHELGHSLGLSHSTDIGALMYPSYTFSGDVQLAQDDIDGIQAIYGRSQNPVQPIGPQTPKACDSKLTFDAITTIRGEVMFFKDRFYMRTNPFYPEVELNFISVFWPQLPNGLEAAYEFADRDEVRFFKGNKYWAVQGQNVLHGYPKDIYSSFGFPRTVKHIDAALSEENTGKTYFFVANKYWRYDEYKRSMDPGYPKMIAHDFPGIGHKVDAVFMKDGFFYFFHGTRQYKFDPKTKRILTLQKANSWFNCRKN
Procedure: as §1, §2, §3

MMP-9 (Gel-B) = target: T5, MMP-9 (Gel-B) (Homo sapiens, UniProt P14780); experiment: Ki determination with fluorogenic synthetic substrates, recombinant MMP-9; type: biochemical; details: Tris/50 mM HCl buffer, pH 6.8, 10 mM CaCl2, 25° C.; read-out: affinity constant Ki, MMP-9 Gel-B
T5 construct: made in house; host or cells: E. coli
T5 sequence (P14780 94-707): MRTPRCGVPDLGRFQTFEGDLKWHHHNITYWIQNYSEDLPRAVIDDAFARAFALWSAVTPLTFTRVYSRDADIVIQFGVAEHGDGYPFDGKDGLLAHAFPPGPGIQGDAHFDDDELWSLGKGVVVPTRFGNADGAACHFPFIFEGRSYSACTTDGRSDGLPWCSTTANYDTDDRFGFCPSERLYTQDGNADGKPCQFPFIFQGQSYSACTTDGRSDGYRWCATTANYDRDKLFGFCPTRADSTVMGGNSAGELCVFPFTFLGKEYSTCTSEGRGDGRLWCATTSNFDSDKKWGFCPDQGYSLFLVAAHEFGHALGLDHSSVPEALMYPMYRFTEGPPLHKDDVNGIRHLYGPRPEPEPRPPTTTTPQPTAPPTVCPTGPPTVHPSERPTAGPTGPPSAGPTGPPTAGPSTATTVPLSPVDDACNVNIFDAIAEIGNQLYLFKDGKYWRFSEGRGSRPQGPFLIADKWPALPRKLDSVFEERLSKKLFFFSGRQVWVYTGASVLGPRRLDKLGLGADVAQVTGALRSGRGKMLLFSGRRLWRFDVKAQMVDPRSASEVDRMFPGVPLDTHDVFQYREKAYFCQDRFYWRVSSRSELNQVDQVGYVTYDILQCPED
Procedure: as §1, §2, §3

MMP-2 (Gel-A) = target: T6, MMP-2 (Gel-A) (Homo sapiens, UniProt P08253); experiment: Ki determination with fluorogenic synthetic substrates, recombinant MMP-2; type: biochemical; details: Tris/50 mM HCl buffer, pH 6.8, 10 mM CaCl2, 25° C.; read-out: affinity constant Ki, MMP-2 Gel-A
T6 construct: made in house; host or cells: E. coli
T6 sequence (P08253 110-660): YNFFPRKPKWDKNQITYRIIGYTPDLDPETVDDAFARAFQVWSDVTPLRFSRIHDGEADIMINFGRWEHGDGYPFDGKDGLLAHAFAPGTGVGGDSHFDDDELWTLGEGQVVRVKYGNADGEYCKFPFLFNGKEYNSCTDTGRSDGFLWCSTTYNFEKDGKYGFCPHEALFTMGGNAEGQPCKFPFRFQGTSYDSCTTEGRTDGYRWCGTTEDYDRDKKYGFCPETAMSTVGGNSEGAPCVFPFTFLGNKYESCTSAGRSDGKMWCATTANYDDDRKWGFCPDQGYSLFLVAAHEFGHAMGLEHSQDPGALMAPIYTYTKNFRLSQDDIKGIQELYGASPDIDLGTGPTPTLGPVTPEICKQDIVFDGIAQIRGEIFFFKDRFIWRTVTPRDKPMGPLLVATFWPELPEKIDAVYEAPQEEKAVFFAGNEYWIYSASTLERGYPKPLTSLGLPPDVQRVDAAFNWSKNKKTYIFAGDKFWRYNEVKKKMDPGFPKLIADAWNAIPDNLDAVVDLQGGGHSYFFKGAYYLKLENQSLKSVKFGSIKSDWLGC
Procedure: as §1, §2, §3

MMP-8 (HNC) = target: T7, MMP-8 (HNC) (Homo sapiens, UniProt P22894); experiment: Ki determination with fluorogenic synthetic substrates, recombinant MMP-8; type: biochemical; details: Tris/50 mM HCl buffer, pH 6.8, 10 mM CaCl2, 25° C.; read-out: affinity constant Ki, MMP-8 HNC
T7 construct: made in house; host or cells: E. coli
T7 sequence (P22894 101-467): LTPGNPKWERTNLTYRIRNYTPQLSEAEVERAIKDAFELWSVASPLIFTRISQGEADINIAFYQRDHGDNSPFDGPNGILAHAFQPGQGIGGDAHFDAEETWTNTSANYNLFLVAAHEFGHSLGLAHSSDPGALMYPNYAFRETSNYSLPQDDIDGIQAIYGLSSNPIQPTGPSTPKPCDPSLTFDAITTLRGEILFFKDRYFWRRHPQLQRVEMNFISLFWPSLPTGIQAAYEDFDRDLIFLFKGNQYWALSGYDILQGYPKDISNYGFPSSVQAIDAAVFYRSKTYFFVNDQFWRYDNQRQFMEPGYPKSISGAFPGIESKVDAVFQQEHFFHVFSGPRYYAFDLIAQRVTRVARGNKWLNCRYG
Procedure: as §1, §2, §3

NC(=O)C(Cc1c[nH]c2ccccc12)NC(=O)C(CCCc1ccccc1)CP(=O)(O)C(Cc1ccccc1)NC(=O)OCc1ccccc1 (single isomer, unassigned) [Compound 15 R I, ZPheΨ(PO2CpH2)pPheTrpNH2]
percentage of inhibition, MMP-7 (MMP-7 (Matrilysin)): 44% @ 20 mM | Ki [1]: 6 nM | Ki (MMP-14 (MT1-MMP)): 90 nM | mean and median tumour volumes in treated versus control animals ([2]; Days 10 to 25): always lower | difference in tumour size, treated versus control animals ([2]; day D15 to day D20, one injection a day for 25 days): ~50% | percentage of inhibition, MMP-1 (MMP-1 (HFC)): 18% @ 2 mM | Ki (MMP-9 (Gel-B)): 42 nM | Ki (MMP-2 (Gel-A)): 54 nM | Ki (MMP-8 (HNC)): 16 nM
